# In patent US11566017B2, “Dihydroquinazolinone compound or pharmacologically acceptable salt, and cell growth inhibitor” (RIKEN, priority 2017, dated 2023):
# What was measured:
# tankyrase 1 (TNKS1) = target: T1, tankyrase 1 (TNKS1) (Homo sapiens, UniProt O95271); test: Tankyrase inhibitory activity test (ELISA, auto-poly(ADP-ribosyl)ation), tankyrase 1; type: biochemical; conditions: Flag tagged tankyrase 1 (1,024-1,327aa, SAM+PARP); read-out: TNKS1 (inhibitory activity against tankyrase 1, IC50)
# T1 construct: tankyrase 1 (1,024-1,327aa, SAM+PARP); made in house; host or cells: cell-free protein expression system
# T1 sequence (O95271 1024-1327): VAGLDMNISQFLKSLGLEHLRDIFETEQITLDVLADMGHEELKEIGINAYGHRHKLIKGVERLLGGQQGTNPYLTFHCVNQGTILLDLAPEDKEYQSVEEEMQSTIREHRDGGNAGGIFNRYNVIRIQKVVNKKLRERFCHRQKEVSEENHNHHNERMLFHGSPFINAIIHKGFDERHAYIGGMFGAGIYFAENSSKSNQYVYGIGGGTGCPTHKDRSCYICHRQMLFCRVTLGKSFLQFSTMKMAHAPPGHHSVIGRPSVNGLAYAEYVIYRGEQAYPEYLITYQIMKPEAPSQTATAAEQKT
# Procedure: (§1) The enzymatic activity of tankyrase 1 and the enzymatic activity of tankyrase 2 were measured by the ELISA method based on assessment of auto-poly(ADP-ribosyl)ation to evaluate the tankyrase inhibitory activity of the compound prepared in each of Examples (test compound) (inhibitory activity against tankyrase 1 (TNKS1) and inhibitory activity against tankyrase 2 (TNKS2)). First, Flag tagged tankyrase 1 (1,024-1,327aa, SAM+PARP) and tankyrase 2 (613-1,116aa, ANK5+SAM+PARP) were synthesized with a cell-free protein expression system, and diluted with a Tris buffer solution (50 mM Tris-HCl (pH 8.0), 150 mM NaCl, 10% glycerol). 50 μL of the diluted tankyrase 1 or tankyrase 2 was added to a plate with an anti-FLAG M2 monoclonal antibody immobilized thereon (Anti-FLAG High-Sensitivity M2-Coated Plate) (Sigma-Aldrich), and the plate was left standing overnight at 4° C. Thereafter, the plate was washed four times with a PBS (PBST) buffer containing 0.1% Triton X-100. For Example 84, the Anti-FLAG High-Sensitivity M2-Coated Plate was replaced by an immunoplate (Thermo Fisher Scientific), tankyrase 1 or tankyrase 2 was immobilized on the immunoplate, and the immunoplate was then blocked with Blocking One (nacalai tesque), then washed with a PBS (PBST) buffer, and used as the following plate.
# (§2) Subsequently, the test compound diluted with an assay buffer (50 mM Tris-HCl (pH 8.0), 4 mM MgCl2, 0.2 mM DTT) (DMSO was used as a control) was added to each well of the plate, and the plate was left standing at room temperature for 10 minutes. Thereafter, a biotin-labeled NAD solution (225 μM NAD, 25 μM 6-Biotin-17-NAD (Travigen, Inc.)) was added and mixed as a donor substrate, and the mixture was reacted at 30° C. for 45 minutes. To blank wells was added distilled water instead of the biotin-labeled NAD solution. After the reaction, the plate was washed with a PBST buffer four times. Thereafter, HRP (horseradish peroxidase)-labeled streptavidin (Travigen, Inc.) was diluted with a PBS buffer by 1,000 times, and added to each well, and the mixture was reacted at room temperature for 20 minutes. The plate was washed with a PBST buffer four times, a chemiluminescent substrate solution TACS-Sapphire (Travigen, Inc.) was then added to each well, the mixture was reacted at room temperature for 20 minutes, and the chemiluminescence intensity was measured using a chemiluminescence measuring apparatus. For Example 84, the streptavidin was diluted by 5,000 times, the chemiluminescent substrate solution TACS-Sapphire was replaced by an ELISA POD substrate TMB solution easy (nacalai tesque), the mixture was reacted at room temperature for 30 minutes, and the chemiluminescence intensity was measured using a chemiluminescence measuring apparatus.
# (§3) The residual enzymatic activity in the presence of the test compound was determined from the following expression. On the basis of the residual enzymatic activity at each of multiple concentrations of the test compound, the enzyme inhibitory activity was calculated in terms of a 50%-inhibition concentration (IC50 value) using data analysis software Origin (LightStone Corp.). Residual activity (%)={(chemiluminescence intensity with test compound added)−(chemiluminescence intensity of blank)}/{(chemiluminescence intensity of control)−(chemiluminescence intensity of blank)}
# tankyrase 2 (TNKS2) = target: T2, tankyrase 2 (TNKS2) (Homo sapiens, UniProt Q9H2K2); test: Tankyrase inhibitory activity test (ELISA, auto-poly(ADP-ribosyl)ation), tankyrase 2; type: biochemical; conditions: Flag tagged tankyrase 2 (613-1,116aa, ANK5+SAM+PARP); read-out: TNKS2 (inhibitory activity against tankyrase 2, IC50)
# T2 construct: tankyrase 2 (613-1,116aa, ANK5+SAM+PARP); made in house; host or cells: cell-free protein expression system
# Procedure: as §1, §2, §3
# [1] = test system: human colorectal cancer cell line COLO-320DM; test: Cell proliferation inhibitory activity test (Celltiter-Glo); type: cell-based; conditions: COLO-320DM cells, 96 hours
# Procedure: The cell proliferation inhibitory activity of the compound, which had been prepared in each of Examples, against the human colorectal cancer cell line COLO-320DM was evaluated by Celltiter-Glo Luminescent Cell Viability Assay (Promega Corporation; G7573). COLO-320DM cells were cultured in RPMI-1640 medium containing 2 mM glutamine (Wako Pure Chemical Industries, Ltd; 189-02025) supplemented with 10% fetal bovine serum. The cultured cells were washed with PBS, and then dissociated with trypsin/EDTA, and a cell solution with 3×10^4 cells/mL was prepared.
# Subsequently, the cell solution was seeded in a 96-well microplate (Thermo/Nunc Company; 136101) in an amount of 70 μL per well, and cultured overnight under the condition of 37° C. and 5% CO2. Next day, a test compound solution obtained by diluting the test compound (DMSO solution) with a cell culture medium (final concentration of DMSO was 1%) was added in an amount of 10 μL per well, and the mixture was reacted under the condition of 37° C. and 5% CO2 for 96 hours (a 1% DMSO solution was used as a control). Thereafter, a Celltiter-GloLuminescent Cell Viability Assay reagent (Promega Corporation; G7573) was added in an amount of 80 μL per well, the mixture was stirred with a shaker for 2 minutes while light was blocked with an aluminum foil, and the mixture was incubated at room temperature for 10 minutes.
# Thereafter, a luminescence signal was measured with a luminometer (Biotech Company; Synergy). The ratio of cell proliferation in each compound addition group to cell proliferation in a control group containing no test compound solution, where cell proliferation in the control group is 100%, was calculated and the value of a compound concentration necessary for suppressing the amount of residual cells to 50% of that in the control (GI50) was calculated as the cytostatic activity. […] An unevaluated test compound was designated as “NT”.
Structure (SMILES),IC50 (tankyrase 1 (TNKS1)),IC50 (tankyrase 2 (TNKS2)),GI50 [1]
"COC(=O)c1ccc(-c2n[nH]cc2C2NC(=O)c3ccccc3N2C)cc1 (stereo not drawn) [Example 1, Methyl 4-[4-(1-methyl-4-oxo-2,3-dihydroquinazolin-2-yl)-1H-pyrazol-5-yl]benzoate]",20 to 50 nM,5 to 20 nM,–
"CN1c2ccccc2C(=O)NC1c1c[nH]nc1-c1ccc(C(=O)O)cc1 (stereo not drawn) [Example 2, 4-[4-(1-Methyl-4-oxo-2,3-dihydroquinazolin-2-yl)-1H-pyrazol-5-yl]benzoic Acid]",< 5 nM,< 5 nM,–
"CN1c2ccccc2C(=O)NC1c1c[nH]nc1-c1ccc(N)cc1 (stereo not drawn) [Example 3, 2-[3-(4-Aminophenyl)-1H-pyrazol-4-yl]-1-methyl-2,3-dihydroquinazolin-4-one]",5 to 20 nM,5 to 20 nM,≥ 10000 nM
"CN1c2ccccc2C(=O)NC1c1c[nH]nc1-c1ccc(NC(=O)c2ccccc2)cc1 (stereo not drawn) [Example 4, N-[4-[4-(1-Methyl-4-oxo-2,3-dihydroquinazolin-2-yl)-1H-pirazol-3-yl]phenyl]benzamide]",5 to 20 nM,< 5 nM,≥ 10000 nM
"CN1c2ccccc2C(=O)NC1c1c[nH]nc1-c1cccc(NC(=O)Nc2ccccc2)c1 (stereo not drawn) [Example 5, 1-[3-[4-(1-Methyl-4-oxo-2,3-dihydroquinazolin-2-yl)-1H-pyrazol-3-yl]phenyl]-3-phenylurea]",5 to 20 nM,5 to 20 nM,≥ 10000 nM
"CN1CCN(c2ccc(-c3ccc(-c4n[nH]cc4C4NC(=O)c5ccccc5N4C)cc3)cc2)CC1 (stereo not drawn) [Example 6, 1-Methyl-2-[5-[4-[4-(4-methylpiperazin-1-yl)phenyl]phenyl]-1H-pirazol-4-yl]-2,3-dihydroquinazolin-4-one]",20 to 50 nM,5 to 20 nM,1000 to 10000 nM
"CN1c2ccccc2C(=O)NC1c1n[nH]nc1-c1ccc(-c2ccc(N3CCOCC3)cc2)cc1 (stereo not drawn) [Example 7, 1-Methyl-2-[4-[4-(4-morpholin-4-ylphenyl)phenyl]-2H-1,2,3-triazol-5-yl]-2,3-dihydroquinazolin-4-one]",20 to 50 nM,5 to 20 nM,≥ 10000 nM
"CCOc1ccc(-c2n[nH]nc2[C@H]2NC(=O)c3cccc(C)c3N2)cc1 [Example 8, (2R)-2-[5-(4-Ethoxyphenyl)-2H-1,2,3-triazol-4-yl]-8-methyl-2,3-dihydro-1H-quinazolin-4-one]",< 5 nM,< 5 nM,< 1000 nM
"O=C1NC(c2c[nH]nc2-c2ccccc2)Nc2ccccc21 (stereo not drawn) [Example 9, 2-(3-Phenyl-1H-pyrazol-4-yl)-2,3-dihydro-1H-quinazolin-4-one]",20 to 50 nM,20 to 50 nM,–
"CN1c2ccccc2C(=O)NC1c1c[nH]nc1-c1ccccc1 (stereo not drawn) [Example 10, 1-Methyl-2-(3-phenyl-1H-pyrazol-4-yl)-2,3-dihydroquinazolin-4-one]",5 to 20 nM,< 5 nM,≥ 10000 nM
"CN1c2ccccc2C(=O)NC1c1c[nH]nc1-c1ccc(OCc2ccccc2)cc1 (stereo not drawn) [Example 11, 1-Methyl-2-[3-(4-phenylmethoxyphenyl)-1H-pyrazol-4-yl]-2,3-dihydroquinazolin-4-one]",5 to 20 nM,< 5 nM,≥ 10000 nM
"CCN1c2ccccc2C(=O)NC1c1c[nH]nc1-c1ccc(OC)cc1 (stereo not drawn) [Example 12, 1-Ethyl-2-[3-(4-methoxyphenyl)-1H-pyrazol-4-yl]-2,3-dihydroquinazolin-4-one]",20 to 50 nM,5 to 20 nM,1000 to 10000 nM
"CCN1c2ccccc2C(=O)NC1c1c[nH]nc1-c1ccc(C(=O)OC)cc1 (stereo not drawn) [Example 13, Methyl 4-[4-(1-ethyl-4-oxo-2,3-dihydroquinazolin-2-yl)-1H-pyrazol-3-yl]benzoate]",20 to 50 nM,20 to 50 nM,≥ 10000 nM
"COc1ccc(-c2n[nH]cc2C2NC(=O)c3ccccc3N2CC2CC2)cc1 (stereo not drawn) [Example 14, 1-(Cyclopropylmethyl)-2-[5-(4-methoxyphenyl)-1H-pyrazol-4-yl]-2,3-dihydroquinazolin-4-one]",20 to 50 nM,20 to 50 nM,≥ 10000 nM
"COc1cccc(-c2n[nH]cc2C2NC(=O)c3ccccc3N2C)c1 (stereo not drawn) [Example 15, 2-[5-(3-Methoxyphenyl)-1H-pyrazol-4-yl]-1-methyl-2,3-dihydroquinazolin-4-one]",5 to 20 nM,20 to 50 nM,≥ 10000 nM
"CN1c2ccccc2C(=O)NC1c1c[nH]nc1-c1ccc([N+](=O)[O-])cc1 (stereo not drawn) [Example 16, 1-Methyl-2-[3-(4-nitrophenyl)-1H-pyrazol-4-yl]-2,3-dihydroquinazolin-4-one]",20 to 50 nM,20 to 50 nM,≥ 10000 nM
"CN1c2ccccc2C(=O)NC1c1c[nH]nc1-c1ccc(-c2ccccc2)cc1 (stereo not drawn) [Example 17, 1-Methyl-2-[3-(4-phenylphenyl)-1H-pyrazol-4-yl]-2,3-dihydroquinazolin-4-one]",20 to 50 nM,< 5 nM,≥ 10000 nM
"CN1c2ccccc2C(=O)NC1c1c[nH]nc1-c1ccc(Oc2ccccc2)cc1 (stereo not drawn) [Example 18, 1-Methyl-2-[3-(4-phenoxyphenyl)-1H-pyrazol-4-yl]-2,3-dihydroquinazolin-4-one]",20 to 50 nM,< 5 nM,≥ 10000 nM
"CN1c2ccccc2C(=O)NC1c1c[nH]nc1-c1ccc(I)cc1 (stereo not drawn) [Example 19, 2-[3-(4-Iodophenyl)-1H-pyrazol-4-yl]-1-methyl-2,3-dihydroquinazolin-4-one]",5 to 20 nM,< 5 nM,≥ 10000 nM
"CN1c2ccccc2C(=O)NC1c1c[nH]nc1-c1cccc(Br)c1 (stereo not drawn) [Example 20, 2-[3-(3-Bromophenyl)-1H-pyrazol-4-yl]-1-methyl-2,3-dihydroquinazolin-4-one]",20 to 50 nM,5 to 20 nM,≥ 10000 nM
"CN1c2ccccc2C(=O)NC1c1c[nH]nc1-c1ccc(F)cc1 (stereo not drawn) [Example 21, 2-[3-(4-Fluorophenyl)-1H-pyrazol-4-yl]-1-methyl-2,3-dihydroquinazolin-4-one]",20 to 50 nM,5 to 20 nM,≥ 10000 nM
"CN1c2ccccc2C(=O)NC1c1c[nH]nc1-c1cccc(-c2ccccc2)c1 (stereo not drawn) [Example 22, 1-Methyl-2-[3-(3-phenylphenyl)-1H-pyrazol-4-yl]-2,3-dihydroquinazolin-4-one]",< 5 nM,< 5 nM,≥ 10000 nM
